Data published in patent US20220081433A1, “CYCLIC SULFAMIDE COMPOUNDS FOR TREATMENT OF HBV” (Assembly Biosciences, Inc., priority 2018, published 2022).

These compounds were tested on HBV (assay: Activity of test compounds on viral production from HepAD38 cells (viral load by qPCR of HBV core sequence)). Conditions: Hepatitis B virus, 120 h, 5 days, supernatant HBV DNA by qPCR vs DMSO control, read-out: viral load lowering EC50 (Activity).
Format: cell-based
Experimental: Assay Measuring Activity of Test Compounds on Viral Production from HepAD38 Cells
HepAD38 cells grown in a T-150 flask (Corning, cat#: 430825) with Growth Medium (DMEM/F12 (1:1) (Hyclone, cat#: SH30023.02), 1× Pen/Strep (Invitrogen, cat#: 15140-122), 10% FBS (Tissue Culture Biologics, cat#: 101), 250 μg/mL G418 (Alfa Aesar, cat#: J62671), 1 μg/mL Tetracycline (Teknova, cat#: T3320)) were detached with 0.25% trypsin-EDTA (Invitrogen, cat#: 25200-056). Tetracycline-free treatment medium (15 mL DMEM/F12 (1:1) 1×Pen/step, with 2% FBS, Tet-system approved (Clontech, cat#: 631106) were then added to mix, transferred into a 50 ml conical tube (Falcon, cat#: 21008-918) and spun at 1300 rpm for 5 min. Pelleted cells were then re-suspended/washed with 50 mL of 1×DPBS (Invitrogen, cat#: 14190-136) 2 times and 50 mL treatment medium twice. HepAD38 cells were then re-suspended with 10 mL of treatment medium, syringed and counted. Wells of 96-well clear bottom TC plate (Corning, cat#: 3904) were seeded at 50,000 cells/well in 180 μL of treatment medium, and 20 μL of either 10% DMSO (Sigma, cat#: D4540) as controls or a 10× solution of test compounds in 10% DMSO in treatment media was added for a final compound concentration starting at 10 μM, and plates were incubated in 5% CO2 incubator at 37° C. for 5 days.
Subsequently viral load production was assayed by quantitative PCR (qPCR) of the HBV core sequence. PCR reaction mixture containing forward primers HBV-f 5′-CTGTGCCTTGGGTGGCTTT-3′ (IDT DNA), Reverse primers HBV-r 5′-[…]-3′ (IDT DNA), Fluorescent TaqMan™ Probes HBV-probe 5′-FAM/AGCTCCAAA/ZEN/[…]/3IABkFQ-3′ (IDT DNA), 10 μL/well of PerfeCTa® qPCR ToughMix® (Quanta Biosciences, Cat#: 95114-05K), and 6 μL/well of DEPC water (Alfa Aesar, cat#: J62087) was prepared. Four μL of supernatant was added to 16 μL of the reaction mixture in a qPCR plate (Applied Biosytems, Cat#: 4309849), sealed with a film (Applied Biosystems, Cat#: 4311971), centrifuged for a few seconds, and subsequently run on an Applied Biosystems VIIA7. The PCR mixture was incubated at 45° C. for 5 min, then 95° C. for 10 min, followed by 40 cycles of 10 seconds at 95° C. and 20 seconds at 60° C. Viral load was quantified against known HBV DNA standards by using ViiA™ 7 Software. Viral load in the supernatant from wells with treated cells were compared against viral load in supernatant from DMSO control wells (≥ 3 per plate). Cell viability assay was performed with CellTiter-Glo Luminescent Cell Viability Assay (Promega, cat#: G7573) with modification. Mixed appropriate amount of CellTiter-Glo (CTG) 1×DPBS in a 1:1 ratio, added 100 uL of the mixture to each well followed completely removal of all supernatant in each well without touching cell surface. Incubated the plate at room temperature for 10 min on an orbital shaker, and then read the plate with a plate reader (TECAN M1000 or Envision). EC50 or CC50 values were calculated through curve-fitting of the four-parameter nonlinear-logistic-regression model (GraphPad Prism or Dotmatics). CC50 values were all >10 μM.
Work on Cc1cc(-c2cccc(C3CC(C(=O)Nc4ccc(F)c(Cl)c4)N(C)S(=O)(=O)N3)c2)ccc1F (centres unmarked) [Example 10, N-(3-Chloro-4-fluorophenyl)-5-(4′-fluoro-3′-methyl-[1,1′-biphenyl]-3-yl)-2-methyl-1,2,6-thiadiazinane-3-carboxamide 1,1-dioxide] yielded an EC50 of under 1000 nM. CN1C(C(=O)Nc2ccc(F)c(Cl)c2)CC(c2cccc(C3=CCOCC3)c2)NS1(=O)=O (centres unmarked) [Example 11, N-(3-Chloro-4-fluorophenyl)-5-(3-(3,6-dihydro-2H-pyran-4-yl)phenyl)-2-methyl-1,2,6-thiadiazinane-3-carboxamide 1,1-dioxide] gave an EC50 of under 1000 nM. COC(=O)c1cccc(-c2cccc(C3CC(C(=O)Nc4ccc(F)c(Cl)c4)N(C)S(=O)(=O)N3)c2)c1 (centres unmarked) [Example 12, Methyl 3′-(5-((3-Chloro-4-fluorophenyl)carbamoyl)-6-methyl-1,1-dioxido-1,2,6-thiadiazinan-3-yl)-[1,1′-biphenyl]-3-carboxylate] was tested, and the EC50 was under 1000 nM. For CN1C(C(=O)Nc2ccc(F)c(Cl)c2)CC(c2cccc(C3CC3)c2)NS1(=O)=O (centres unmarked) [Example 13, N-(3-Chloro-4-fluorophenyl)-5-(3-cyclopropylphenyl)-2-methyl-1,2,6-thiadiazinane-3-carboxamide 1,1-dioxide], the EC50 was under 1000 nM. COc1ccc(-c2cccc(C3CC(C(=O)Nc4ccc(F)c(Cl)c4)N(C)S(=O)(=O)N3)c2)cc1C(F)(F)F (centres unmarked) [Example 14, N-(3-Chloro-4-fluorophenyl)-5-(4′-methoxy-3′-(trifluoromethyl)-[1,1′-biphenyl]-3-yl)-2-methyl-1,2,6-thiadiazinane-3-carboxamide 1,1-dioxide] gave an EC50 of 1000 to 5000 nM. Work on COC(=O)Cc1ccc(-c2cccc(C3CC(C(=O)Nc4ccc(F)c(Cl)c4)N(C)S(=O)(=O)N3)c2)cc1 (centres unmarked) [Example 15, Methyl 2-(3′-(5-((3-chloro-4-fluorophenyl)carbamoyl)-6-methyl-1,1-dioxido-1,2,6-thiadiazinan-3-yl)-[1,1′-biphenyl]-4-yl)acetate] yielded an EC50 of under 1000 nM. With Cc1nn(C)cc1-c1cccc(C2CC(C(=O)Nc3ccc(F)c(Cl)c3)N(C)S(=O)(=O)N2)c1 (centres unmarked) [Example 16, N-(3-Chloro-4-fluorophenyl)-5-(3-(1,3-dimethyl-1H-pyrazol-4-yl)phenyl)-2-methyl-1,2,6-thiadiazinane-3-carboxamide 1,1-dioxide] the EC50 was under 1000 nM. In the case of CN1C(C(=O)Nc2ccc(F)c(Cl)c2)CC(c2cccc(-c3cnn(CC(=O)O)c3)c2)NS1(=O)=O (centres unmarked) [Example 17, 2-(4-(3-(5-((3-Chloro-4-fluorophenyl)carbamoyl)-6-methyl-1,1-dioxido-1,2,6-thiadiazinan-3-yl)phenyl)-1H-pyrazol-1-yl)acetic acid], the EC50 is reported as 5000 to 10000 nM. CN1CC=C(c2cccc(C3CC(C(=O)Nc4ccc(F)c(Cl)c4)N(C)S(=O)(=O)N3)c2)CC1 (centres unmarked) [Example 18, N-(3-Chloro-4-fluorophenyl)-2-methyl-5-(3-(1-methyl-1,2,3,6-tetrahydropyridin-4-yl)phenyl)-1,2,6-thiadiazinane-3-carboxamide 1,1-dioxide] gave an EC50 of under 1000 nM. Compound CN1C(C(=O)Nc2ccc(F)c(Cl)c2)CC(c2cccc(-c3cccc(C(=O)O)c3)c2)NS1(=O)=O (centres unmarked) [Example 19, 3′-(5-((3-Chloro-4-fluorophenyl)carbamoyl)-6-methyl-1,1-dioxido-1,2,6-thiadiazinan-3-yl)-[1,1′-biphenyl]-3-carboxylic acid] has an EC50 of 1000 to 5000 nM. Work on CN1C(C(=O)Nc2ccc(F)c(Cl)c2)CC(c2cccc(-c3cncn3C)c2)NS1(=O)=O (centres unmarked) [Example 20, N-(3-Chloro-4-fluorophenyl)-2-methyl-5-(3-(1-methyl-1H-imidazol-5-yl)phenyl)-1,2,6-thiadiazinane-3-carboxamide 1,1-dioxide] yielded an EC50 of under 1000 nM. With CN1C(C(=O)Nc2ccc(F)c(Cl)c2)CC(c2cccc(-c3ccc(C(F)(F)F)cc3)c2)NS1(=O)=O (centres unmarked) [Example 21, N-(3-Chloro-4-fluorophenyl)-2-methyl-5-(4′-(trifluoromethyl)-[1,1′-biphenyl]-3-yl)-1,2,6-thiadiazinane-3-carboxamide 1,1-dioxide] the EC50 was under 1000 nM. With CN1C(C(=O)Nc2ccc(F)c(Cl)c2)CC(c2cccc(-c3ccccn3)c2)NS1(=O)=O (centres unmarked) [Example 22, N-(3-Chloro-4-fluorophenyl)-2-methyl-5-(3-(pyridin-2-yl)phenyl)-1,2,6-thiadiazinane-3-carboxamide 1,1-dioxide] the EC50 was under 1000 nM. Compound CN1C(C(=O)Nc2ccc(F)c(Cl)c2)CC(c2cccc(N3CCCCC3)c2)NS1(=O)=O (centres unmarked) [Example 23, N-(3-Chloro-4-fluorophenyl)-2-methyl-5-(3-(piperidin-1-yl)phenyl)-1,2,6-thiadiazinane-3-carboxamide 1,1-dioxide] has an EC50 of under 1000 nM. CN1C(C(=O)Nc2ccc(F)c(Cl)c2)CC(c2cccc(N3CCOCC3)c2)NS1(=O)=O (centres unmarked) [Example 24, N-(3-Chloro-4-fluorophenyl)-2-methyl-5-(3-morpholinophenyl)-1,2,6-thiadiazinane-3-carboxamide 1,1-dioxide] gave an EC50 of under 1000 nM. For CN1C(C(=O)Nc2ccc(F)c(Cl)c2)CC(c2cccc(-n3cccn3)c2)NS1(=O)=O (centres unmarked) [Example 26, 5-(3-(1H-Pyrazol-1-yl)phenyl)-N-(3-chloro-4-fluorophenyl)-2-methyl-1,2,6-thiadiazinane-3-carboxamide 1,1-dioxide], the EC50 was under 1000 nM. With Cc1nnc(C2CC(C(=O)Nc3ccc(F)c(Cl)c3)N(C)S(=O)(=O)N2)o1 (centres unmarked) [Example 29, N-(3-Chloro-4-fluorophenyl)-2-methyl-5-(5-methyl-1,3,4-oxadiazol-2-yl)-1,2,6-thiadiazinane-3-carboxamide 1,1-dioxide] the EC50 was 1000 to 5000 nM. In the case of Cc1nnc(C2CC(C(=O)Nc3ccc(F)c(Cl)c3)N(C)S(=O)(=O)N2)n1C (centres unmarked) [Example 32, N-(3-Chloro-4-fluorophenyl)-5-(4,5-dimethyl-4H-1,2,4-triazol-3-yl)-2-methyl-1,2,6-thiadiazinane-3-carboxamide 1,1-dioxide], the EC50 is reported as 5000 to 10000 nM. CN1C(C(=O)Nc2ccc(F)c(Cl)c2)CC(c2nnc(Cc3ccccc3)n2C)NS1(=O)=O (centres unmarked) [Example 33, 5-(5-Benzyl-4-methyl-4H-1,2,4-triazol-3-yl)-N-(3-chloro-4-fluorophenyl)-2-methyl-1,2,6-thiadiazinane-3-carboxamide 1,1-dioxide] was tested, and the EC50 was 5000 to 10000 nM. With CN1C(C(=O)Nc2ccc(F)c(Cl)c2)CC(c2ncc(-c3ccccc3)n2C)NS1(=O)=O (centres unmarked) [Example 34, N-(3-Chloro-4-fluorophenyl)-2-methyl-5-(1-methyl-5-phenyl-1H-imidazol-2-yl)-1,2,6-thiadiazinane-3-carboxamide 1,1-dioxide] the EC50 was 5000 to 10000 nM. Compound CN1C(C(=O)Nc2ccc(F)c(Cl)c2)CC(c2ccc(-c3cn(C)cn3)o2)NS1(=O)=O (centres unmarked) [Example 36, N-(3-Chloro-4-fluorophenyl)-2-methyl-5-(5-(1-methyl-1H-imidazol-4-yl)furan-2-yl)-1,2,6-thiadiazinane-3-carboxamide 1,1-dioxide] has an EC50 of under 1000 nM. Compound CN1C(C(=O)Nc2ccc(F)c(Cl)c2)CC(c2n[nH]c(=O)n2-c2ccccc2)NS1(=O)=O (centres unmarked) [Example 37, N-(3-Chloro-4-fluorophenyl)-2-methyl-5-(5-oxo-4-phenyl-4,5-dihydro-1H-1,2,4-triazol-3-yl)-1,2,6-thiadiazinane-3-carboxamide 1,1-dioxide] has an EC50 of 1000 to 5000 nM. For CN1C(C(=O)Nc2ccc(F)c(Cl)c2)CC(c2n[nH]c(=O)n2Cc2ccccc2)NS1(=O)=O (centres unmarked) [Example 38, 5-(4-Benzyl-5-oxo-4,5-dihydro-1H-1,2,4-triazol-3-yl)-N-(3-chloro-4-fluorophenyl)-2-methyl-1,2,6-thiadiazinane-3-carboxamide 1,1-dioxide], the EC50 was 5000 to 10000 nM.
